These molecules were tested on HSP-90 (heat shock protein 90) (assay: Determination of affinity for HSP-90 (elution from purine affinity column, SDS-PAGE densitometry)). Details: elution of HSP-90 from purine affinity column with 20, 100 and 500 μM test compound.
Type: binding
Set-up: key: +++: very high; ++: high; +: moderate
Experimental: Affinity of test compounds for HSP-90 was determined as follows: Protein mixtures obtained from a variety of organ tissues (for example: spleen, liver and lung) were reversibly bound to a purine affinity column to capture purine-binding proteins, especially HSP-90. The purine affinity column was washed several times, and then eluted with 20 μM, 100 μM, and 500 μM of test compound. Compounds of Formula I elute HP-90 in a dose-dependent manner vs. a control elution using dimethylsulfoxide. The elution profile of Formula I compounds was determined by 1-dimensional SDS polyacrylamide gel electrophoresis. Gels were stained with a fluorescent stain such as sypro ruby (a highly sensitive fluorescent protein stain that can readily detect less than 1 fmol of total protein, i.e., less than 0.04 ng for a 40 kDa protein) or silver nitrate. The gels were imaged using a standard flat bed gel imager and the amount of protein estimated by densitometry. The percent of HSP-90 protein eluted from the column at each concentration was determined and IC50 values were calculated from these estimates. The identity of a band containing HSP-90 was determined by protein sequencing using mass spectroscopy.
Compounds of the invention are inhibitors of HSP-90 (heat shock protein 90). Several exemplary compounds useful in the methods of the invention are listed below.

Structure (SMILES)	relative binding affinity to HSP-90
CC1(C)CC(=O)c2c(C(F)(F)F)nn(-c3ccc(C(N)=O)c(NCC(O)CO)c3)c2C1 (centres unmarked) [Compound 30, 2-(2,3-Dihydroxy-propylamino)-4-(6,6-dimethyl-4-oxo-3-trifluoromethyl-4,5,6,7-tetrahydro-indazol-1-yl)-benzamide]	++
Cc1cn(-c2ccc(C(N)=O)c(NCCN3CCOCC3)c2)c2c1C(=O)CC(C)(C)C2 [Compound 96, 2-[(2-morpholin-4-ylethyl)amino]-4-(3,6,6-trimethyl-4-oxo-4,5,6,7-tetrahydro-1H-indol-1-yl)benzamide]	+++
COCCNc1cc(-n2c(C)c(C)c3c2CCCC3=O)ccc1C(N)=O [Compound 92, 4-(2,3-dimethyl-4-oxo-4,5,6,7-tetrahydro-1H-indol-1-yl)-2-[(2-methoxyethyl)amino]benzamide]	++
COCCNc1cc(-n2nc(C)c3c2CC(C)(C)CC3=O)ccc1C(N)=O [Compound 95, 2-[(2-methoxyethyl)amino]-4-(3,6,6-trimethyl-4-oxo-4,5,6,7-tetrahydro-1H-indazol-1-yl)benzamide]	+++
Cc1nn(-c2ccc(C(N)=O)c(NC3CN(S(C)(=O)=O)C3)c2)c2c1C(=O)CC(C)(C)C2 [Compound 131, 2-{[1-(methylsulfonyl)azetidin-3-yl]amino}-4-(3,6,6-trimethyl-4-oxo-4,5,6,7-tetrahydro-1H-indazol-1-yl)benzamide]	++
CCn1nccc1Nc1cc(-n2c(C)cc3c2CC(C)(C)CC3=O)ccc1C(N)=O [Compound 83, 2-[(1-ethyl-1H-pyrazol-5-yl)amino]-4-(2,6,6-trimethyl-4-oxo-4,5,6,7-tetrahydro-1H-indol-1-yl)benzamide]	+++
COc1ccc(Nc2cc(-n3c(C)cc4c3CC(C)(C)CC4=O)ccc2C(N)=O)cn1 [Compound 87, 2-[(6-methoxypyridin-3-yl)amino]-4-(2,6,6-trimethyl-4-oxo-4,5,6,7-tetrahydro-1H-indol-1-yl)benzamide]	++
C=CCNc1cc(-n2ccc3c2CCCC3=O)ccc1C(N)=O [Compound 88, 2-(allylamino)-4-(4-oxo-4,5,6,7-tetrahydro-1H-indol-1-yl)benzamide]	++
C=CCNc1cc(-n2cc(C)c3c2CC(C)(C)CC3=O)ccc1C(N)=O [Compound 50, 2-(allylamino)-4-(3,6,6-trimethyl-4-oxo-4,5,6,7-tetrahydroindol-1-yl)benzamide]	+++
C=CCCc1nn(-c2ccc(C(N)=O)cc2)c2c1C(=O)CC(C)(C)C2 [Compound 134, 4-(3-but-3-en-1-yl-6,6-dimethyl-4-oxo-4,5,6,7-tetrahydro-1H-indazol-1-yl)benzamide]	++
Cc1nn(-c2ccc(C(N)=O)c(N[C@H]3CCN(S(C)(=O)=O)C3)c2)c2c1C(=O)CC(C)(C)C2 [Compound 135, 2-{[(3S)-1-(methylsulfonyl)pyrrolidin-3-yl]amino}-4-(3,6,6-trimethyl-4-oxo-4,5,6,7-tetrahydro-1H-indazol-1-yl)benzamide]	+++
Cc1cc2c(n1-c1ccc(C(N)=O)c(-n3ccnc3)c1)CC(C)(C)CC2=O [Compound 80, 2-(1H-imidazol-1-yl)-4-(2,6,6-trimethyl-4-oxo-4,5,6,7-tetrahydro-1H-indol-1-yl)benzamide]	+
C=CCNc1cc(-n2c(C)c(C)c3c2CCCC3=O)ccc1C(N)=O [Compound 91, 2-(allylamino)-4-(2,3-dimethyl-4-oxo-4,5,6,7-tetrahydro-1H-indol-1-yl)benzamide]	++
Cc1nn(-c2ccc(C(N)=O)c(NCCCS(C)(=O)=O)c2)c2c1C(=O)CC(C)(C)C2 [Compound 132, 2-{[3-(methylsulfonyl)propyl]amino}-4-(3,6,6-trimethyl-4-oxo-4,5,6,7-tetrahydro-1H-indazol-1-yl)benzamide]	+++
CC1(C)CC(=O)c2c(C(F)F)nn(-c3ccc(C(N)=O)c(NC4CCSCC4)c3)c2C1 [Compound 32, 4-(3-Difluoromethyl-6,6-dimethyl-4-oxo-4,5,6,7-tetrahydro-indazol-1-yl)-2-(tetrahydro-thiopyran-4-ylamino)-benzamide]	+++
Cc1cn(-c2ccc(C(N)=O)c(NC3CCc4ccccc43)c2)c2c1C(=O)CC(C)(C)C2 (centres unmarked) [Compound 54, 2-(2,3-dihydro-1H-inden-1-ylamino)-4-(3,6,6-trimethyl-4-oxo-4,5,6,7-tetrahydroindol-1-yl)benzamide]	+
Cc1cc2c(n1-c1ccc(C(N)=O)c(Nc3ccc(Cl)cc3)c1)CC(C)(C)CC2=O [Compound 73, 2-[(4-chlorophenyl)amino]-4-(2,6,6-trimethyl-4-oxo-4,5,6,7-tetrahydro-1H-indol-1-yl)benzamide]	+
COc1cc(Nc2cc(-n3ccc4c3CCCC4=O)ccc2C(N)=O)cc(OC)c1OC [Compound 86, 4-(4-oxo-4,5,6,7-tetrahydro-1H-indol-1-yl)-2-[(3,4,5-trimethoxyphenyl)amino]benzamide]	++
COc1cc(Nc2cc(-n3nc(C(F)(F)F)c4c3CC(C)(C)CC4=O)ccc2C(N)=O)cc(OC)c1OC [Compound 107, 4-[6,6-dimethyl-4-oxo-3-(trifluoromethyl)-4,5,6,7-tetrahydro-1H-indazol-1-yl]-2-[(3,4,5-trimethoxyphenyl)amino]benzamide]	++
Cc1nn(-c2ccc(C(N)=O)c(NCCCN3CCCC3=O)c2)c2c1C(=O)CC(C)(C)C2 [Compound 34, 2-[3-(2-Oxo-pyrrolidin-1-yl)-propylamino]-4-(3,6,6-trimethyl-4-oxo-4,5,6,7-tetrahydro-indazol-1-yl)-benzamide]	++
Cc1cc2c(n1-c1ccc(C(N)=O)c(N3CCOCC3)c1)CC(C)(C)CC2=O [Compound 79, 2-morpholin-4-yl-4-(2,6,6-trimethyl-4-oxo-4,5,6,7-tetrahydro-1H-indol-1-yl)benzamide]	+
Cc1cc2c(n1-c1cnc(C(N)=O)c(Nc3ccccc3)c1)CC(C)(C)CC2=O [Compound 75, 3-anilino-5-(2,6,6-trimethyl-4-oxo-4,5,6,7-tetrahydro-1H-indol-1-yl)pyridine-2-carboxamide]	+++
Cc1cn(-c2ccc(C(N)=O)c(NC3CCN(C(=O)CN(C)C)CC3)c2)c2c1C(=O)CC(C)(C)C2 [Compound 109, 2-{[1-(N,N-dimethylglycyl)piperidin-4-yl]amino}-4-(3,6,6-trimethyl-4-oxo-4,5,6,7-tetrahydro-1H-indol-1-yl)benzamide]	++

Each molecule was assayed on PC-3 cell proliferation (assay: Cell proliferation assay (WST-1), PC-3). Details: Homo sapiens; PC-3 cells, WST-1 readout; read-out: inhibitory activity against PC-3 cell proliferation (IC50 range).
Type: cell-based
Experimental: A panel of cancer cell lines was obtained from the DCTP Tumor Repository, National Cancer Institute (Frederick, Md.) or ATCC (Rockville, Md.). Cell cultures were maintained in Hyclone RPMI 1640 medium (Logan, Utah) supplemented with 10% fetal bovine serum and 20 mM HEPES buffer, final pH 7.2, at 37° C. with a 5% CO2 atmosphere. Cultures were maintained at sub-confluent densities. Human umbilical vein endothelial cells (HUVEC) were purchased from Clonetics, a division of Cambrex (Walkersville, Md.). Cultures were established from cryopreserved stocks using Clonetics EGM-2 medium supplemented with 20 mM HEPES, final pH 7.2, at 37° C. with a 5% CO2 atmosphere.
For proliferation assays, cells were seeded with the appropriate medium into 96 well plates at 1,000-2,500 cells per well, depending on the cell line, and were incubated overnight. The following day, test compound, DMSO solution (negative control), or Actinomycin D (positive control) was added to the appropriate wells as 10× concentrated stocks prepared in phosphate buffered saline. The cell plates were then incubated for an additional 2-5 days, depending on the cell line, to allow proliferation to occur. To measure cell density, 50 μL of WST-1 solution (Roche Applied Science, Ind.) diluted 1:5 in phosphate buffered saline was added to each well, and the cells incubated for an additional 1-5 hrs., again depending on the cell line. Optical density was determined for each well at […] using a Tecan GeniosPro plate reader (RTP, NC). The percentage of cell growth was determined by comparing the cell growth in the presence of test compounds to the cells treated with DMSO vehicle (control, 100% growth) and cells treated with Actinomycin D (10 μM, 0% growth). […]

Structure (SMILES)	IC50 [µM]
COc1ccc(Nc2cc(-n3nc(C)c4c3CC(C)(C)CC4=O)ccc2C(N)=O)cc1OCCN(C)C [Compound 27, 2-[3-(2-Dimethylamino-ethoxy)-4-methoxy-phenylamino]-4-(3,6,6-trimethyl-4-oxo-4,5,6,7-tetrahydro-indazol-1-yl)-benzamide]	< 0.5
COCCNc1cc(-n2cc(C)c3c2CC(C)(C)CC3=O)ccc1C(N)=O [Compound 5, 2-(2-Methoxy-ethylamino)-4-(3,6,6-trimethyl-4-oxo-4,5,6,7-tetrahydro-indol-1-yl)-benzamide]	0.5 to 5
CC1(C)CC(=O)c2c(-c3ccccc3)cn(-c3ccc(C(N)=O)cc3)c2C1 [Compound 110, 4-(6,6-dimethyl-4-oxo-3-phenyl-4,5,6,7-tetrahydro-1H-indol-1-yl)benzamide]	5 to 50

Source: patent US7928135B2, “Benzene, pyridine, and pyridazine derivatives” (Serenex, Inc., priority 2005, dated 2011)
